In PubChem BioAssay (NCI):
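Where inhibition never reached the appropriate level, the endpoint shown equals the highest concentration tested. Otherwise, values were interpolated linearly from a five-concentration, 48-hour dose response in 96-well plates. The concentration for 50% growth inhibition is given as GI50. Definition used: TGI = concentration required for complete inhibition of growth.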

Columns and labels:
Test in all cases: NCI-60 cell line screen, 48 h
KM12 colon = test system: KM12 colon
NCI-H226 lung = test system: NCI-H226 lung
DU-145 prostate = test system: DU-145 prostate
COLO 205 colon = test system: COLO 205 colon
HOP-92 NSCLC = test system: HOP-92 NSCLC
OVCAR-8 ovarian = test system: OVCAR-8 ovarian
SK-OV-3 ovarian = test system: SK-OV-3 ovarian
IGROV1 ovarian = test system: IGROV1 ovarian
NCI-H522 lung = test system: NCI-H522 lung
MCF7 breast = test system: MCF7 breast
SN12C renal = test system: SN12C renal
LOX IMVI melanoma = test system: LOX IMVI melanoma
UO-31 renal = test system: UO-31 renal
SF-295 CNS = test system: SF-295 CNS
SK-MEL-28 melanoma = test system: SK-MEL-28 melanoma
ACHN renal = test system: ACHN renal
SR leukemia = test system: SR leukemia
HCT-116 colon = test system: HCT-116 colon
MALME-3M melanoma = test system: MALME-3M melanoma
MDA-MB-231 breast = test system: MDA-MB-231 breast
OVCAR-5 ovarian = test system: OVCAR-5 ovarian
SK-MEL-5 melanoma = test system: SK-MEL-5 melanoma
SNB-75 CNS = test system: SNB-75 CNS
HCT-15 colon = test system: HCT-15 colon
MOLT-4 leukemia = test system: MOLT-4 leukemia
HS 578T breast = test system: HS 578T breast
HT29 colon = test system: HT29 colon
SW-620 colon = test system: SW-620 colon
SF-268 CNS = test system: SF-268 CNS
RXF 393 renal = test system: RXF 393 renal
SNB-19 CNS = test system: SNB-19 CNS
A498 renal = test system: A498 renal
NCI/ADR-RES ovarian = test system: NCI/ADR-RES ovarian
HL-60(TB) leukemia = test system: HL-60(TB) leukemia
NCI-H23 lung = test system: NCI-H23 lung
CCRF-CEM leukemia = test system: CCRF-CEM leukemia
786-0 renal = test system: 786-0 renal
U251 CNS = test system: U251 CNS
OVCAR-4 ovarian = test system: OVCAR-4 ovarian
UACC-257 melanoma = test system: UACC-257 melanoma
HCC-2998 colon = test system: HCC-2998 colon
SF-539 CNS = test system: SF-539 CNS
T-47D breast = test system: T-47D breast
A549 NSCLC = test system: A549 NSCLC
BT-549 breast = test system: BT-549 breast
SK-MEL-2 melanoma = test system: SK-MEL-2 melanoma
TK-10 renal = test system: TK-10 renal
NCI-H460 lung = test system: NCI-H460 lung
EKVX NSCLC = test system: EKVX NSCLC
OVCAR-3 ovarian = test system: OVCAR-3 ovarian
HOP-62 NSCLC = test system: HOP-62 NSCLC
RPMI-8226 leukemia = test system: RPMI-8226 leukemia
MDA-MB-435 = test system: MDA-MB-435
M14 melanoma = test system: M14 melanoma
UACC-62 melanoma = test system: UACC-62 melanoma
MDA-MB-468 breast = test system: MDA-MB-468 breast
K-562 leukemia = test system: K-562 leukemia
PC-3 prostate = test system: PC-3 prostate
CAKI-1 renal = test system: CAKI-1 renal

For `O=C(N/N=C/c1ccc(B(O)O)s1)c1[nH]c2ccc(Br)cc2c1-c1ccccc1`, the GI50 (KM12 colon) was 342 nM, the TGI (KM12 colon) was 4900 nM and the GI50 (NCI-H226 lung) was 511 nM. For the same compound, the TGI (NCI-H226 lung) was 5430 nM, the GI50 (DU-145 prostate) was 367 nM and the TGI (DU-145 prostate) was 11600 nM. For the same compound, the GI50 (COLO 205 colon) was 231 nM, the TGI (COLO 205 colon) was 515 nM and the GI50 (HOP-92 NSCLC) was 974 nM. It also gave a TGI (HOP-92 NSCLC) of 6340 nM, a GI50 (OVCAR-8 ovarian) of 272 nM and a TGI (OVCAR-8 ovarian) of 816 nM. It also gave a GI50 (SK-OV-3 ovarian) of 691 nM, a TGI (SK-OV-3 ovarian) of 15000 nM and a GI50 (IGROV1 ovarian) of 403 nM. For the same compound, the TGI (IGROV1 ovarian) was 13100 nM, the GI50 (NCI-H522 lung) was 208 nM and the TGI (NCI-H522 lung) was 549 nM. It also gave a GI50 (MCF7 breast) of 333 nM, a TGI (MCF7 breast) of 10500 nM and a GI50 (SN12C renal) of 374 nM. It also gave a TGI (SN12C renal) of 8110 nM, a GI50 (LOX IMVI melanoma) of 350 nM and a TGI (LOX IMVI melanoma) of 6220 nM. It also gave a GI50 (UO-31 renal) of 1050 nM, a TGI (UO-31 renal) of 14100 nM and a GI50 (SF-295 CNS) of 299 nM. It also gave a TGI (SF-295 CNS) of 5380 nM, a GI50 (SK-MEL-28 melanoma) of 856 nM and a TGI (SK-MEL-28 melanoma) of 16700 nM. The GI50 (ACHN renal) was 512 nM, the TGI (ACHN renal) was 14000 nM and the GI50 (SR leukemia) was 364 nM. It also gave a TGI (SR leukemia) of 14300 nM, a GI50 (HCT-116 colon) of 331 nM and a TGI (HCT-116 colon) of 4340 nM. It also gave a GI50 (MALME-3M melanoma) of 512 nM, a TGI (MALME-3M melanoma) of 21100 nM and a GI50 (MDA-MB-231 breast) of 339 nM. The TGI (MDA-MB-231 breast) was 11300 nM, the GI50 (OVCAR-5 ovarian) was 390 nM and the TGI (OVCAR-5 ovarian) was 13900 nM. The GI50 (SK-MEL-5 melanoma) was 215 nM, the TGI (SK-MEL-5 melanoma) was 497 nM and the GI50 (SNB-75 CNS) was 316 nM. For the same compound, the TGI (SNB-75 CNS) was 5630 nM, the GI50 (HCT-15 colon) was 340 nM and the TGI (HCT-15 colon) was 8830 nM. It also gave a GI50 (MOLT-4 leukemia) of 459 nM, a TGI (MOLT-4 leukemia) of 14400 nM and a GI50 (HS 578T breast) of 296 nM. The TGI (HS 578T breast) was 3440 nM, the GI50 (HT29 colon) was 290 nM and the TGI (HT29 colon) was 992 nM. It also gave a GI50 (SW-620 colon) of 395 nM, a TGI (SW-620 colon) of 14800 nM and a GI50 (SF-268 CNS) of 515 nM. For the same compound, the TGI (SF-268 CNS) was 10200 nM, the GI50 (RXF 393 renal) was 343 nM and the TGI (RXF 393 renal) was 13600 nM. The GI50 (SNB-19 CNS) was 387 nM, the TGI (SNB-19 CNS) was 13500 nM and the GI50 (A498 renal) was 8500 nM. For the same compound, the TGI (A498 renal) was 21600 nM, the GI50 (NCI/ADR-RES ovarian) was 238 nM and the TGI (NCI/ADR-RES ovarian) was 587 nM. For the same compound, the GI50 (HL-60(TB) leukemia) was 230 nM, the TGI (HL-60(TB) leukemia) was 659 nM and the GI50 (NCI-H23 lung) was 378 nM. It also gave a TGI (NCI-H23 lung) of 13200 nM, a GI50 (CCRF-CEM leukemia) of 366 nM and a TGI (CCRF-CEM leukemia) of 12600 nM. The GI50 (786-0 renal) was 411 nM, the TGI (786-0 renal) was 8280 nM and the GI50 (U251 CNS) was 311 nM. For the same compound, the TGI (U251 CNS) was 4600 nM, the GI50 (OVCAR-4 ovarian) was 3560 nM and the TGI (OVCAR-4 ovarian) was 24100 nM. It also gave a GI50 (UACC-257 melanoma) of 1250 nM, a TGI (UACC-257 melanoma) of 18200 nM and a GI50 (HCC-2998 colon) of 364 nM. It also gave a TGI (HCC-2998 colon) of 5810 nM, a GI50 (SF-539 CNS) of 227 nM and a TGI (SF-539 CNS) of 551 nM. It also gave a GI50 (T-47D breast) of 3740 nM, a TGI (T-47D breast) of 22700 nM and a GI50 (A549 NSCLC) of 423 nM. The TGI (A549 NSCLC) was 13400 nM, the GI50 (BT-549 breast) was 348 nM and the TGI (BT-549 breast) was 1020 nM. It also gave a GI50 (SK-MEL-2 melanoma) of 432 nM, a TGI (SK-MEL-2 melanoma) of 14000 nM and a GI50 (TK-10 renal) of 7960 nM. For the same compound, the TGI (TK-10 renal) was 22900 nM, the GI50 (NCI-H460 lung) was 363 nM and the TGI (NCI-H460 lung) was 4100 nM. The GI50 (EKVX NSCLC) was 425 nM, the TGI (EKVX NSCLC) was 11200 nM and the GI50 (OVCAR-3 ovarian) was 302 nM. The TGI (OVCAR-3 ovarian) was 2960 nM, the GI50 (HOP-62 NSCLC) was 557 nM and the TGI (HOP-62 NSCLC) was 11800 nM. The GI50 (RPMI-8226 leukemia) was 521 nM, the TGI (RPMI-8226 leukemia) was over 52300 nM and the GI50 (MDA-MB-435) was 250 nM. The TGI (MDA-MB-435) was 647 nM, the GI50 (M14 melanoma) was 371 nM and the TGI (M14 melanoma) was 12700 nM. It also gave a GI50 (UACC-62 melanoma) of 395 nM, a TGI (UACC-62 melanoma) of 5920 nM and a GI50 (MDA-MB-468 breast) of 235 nM. It also gave a TGI (MDA-MB-468 breast) of 572 nM, a GI50 (K-562 leukemia) of 354 nM and a TGI (K-562 leukemia) of 16300 nM. It also gave a GI50 (PC-3 prostate) of 476 nM, a TGI (PC-3 prostate) of 16500 nM and a GI50 (CAKI-1 renal) of 444 nM. For the same compound, the TGI (CAKI-1 renal) was 13600 nM.
